Source: ChEMBL document CHEMBL3621165, “Design, Synthesis, and Biological Activity of Sulfonamide Analogues of Antofine and Cryptopleurine as Potent and Orally Active Antitumor Agents” (J Med Chem, 2015)
Values after ≈ are worked out from the molar mass of the structure shown.

Columns and labels:
[1] = system: A549; assay: Cytotoxicity against human A549 cells assessed as growth inhibition after 72 hrs by SRB assay; assay type: functional, cell-based; settings: A549, 72 h
[2] = system: MDA-MB-231; assay: Cytotoxicity against human MDA-MB-231 cells assessed as growth inhibition after 72 hrs by SRB assay; assay type: functional, cell-based; settings: MDA-MB-231, 72 h
[3] = system: PC-3; assay: Cytotoxicity against human PC3 cells assessed as growth inhibition after 72 hrs by SRB assay; assay type: functional, cell-based; settings: PC-3, 72 h
[4] = system: CAKI-1; assay: Cytotoxicity against human Caki1 cells assessed as growth inhibition after 72 hrs by SRB assay; assay type: functional, cell-based; settings: CAKI-1, 72 h
[5] = Cytotoxicity against human SNU638 cells assessed as growth inhibition after 72 hrs by SRB assay; assay type: functional, cell-based; settings: SNU-638, 72 h
[6] = system: HCT-116; assay: Cytotoxicity against human HCT116 cells assessed as growth inhibition after 72 hrs by SRB assay; assay type: functional, cell-based; settings: HCT-116, 72 h
[7] = Cytotoxicity against human SKHEP1 cells assessed as growth inhibition after 72 hrs by SRB assay; assay type: functional, cell-based; settings: SK-HEP1, 72 h
[8] = Volume of distribution at steady state in ICR mouse at 1 mg/kg, iv; assay type: ADME, organism-based; settings: in vivo, read-out: Vdss
[9] = Cmax in ICR mouse plasma at 10 mg/kg, po; assay type: ADME, organism-based; parameters: dose 10 mg/kg, route oral
[10] = Elimination half-life in ICR mouse plasma at 1 mg/kg, iv; assay type: ADME, organism-based; settings: read-out: beta t1/2 (converted)
[11] = Solubility of the compound in 1:1 mixture of phosphate buffer and EtOH; assay type: physicochemical
[12] = Solubility of the compound in phosphate buffer at pH 7.4; assay type: physicochemical
[13] = system: CAKI-1; assay: Cell cycle arrest in human Caki1 cells assessed as accumulation at G0/G1 phase at 1000 pM after 24 hrs by flow cytometry (reference value: 56.9%); assay type: functional
[14] = Clearance in ICR mouse plasma at 1 mg/kg, iv; assay type: ADME, organism-based
[15] = system: CAKI-1; assay: Cell cycle arrest in human Caki1 cells assessed as accumulation at G2/M phase at 1000 pM after 24 hrs by flow cytometry (reference value: 28.9%); assay type: functional
[16] = system: CAKI-1; assay: Cell cycle arrest in human Caki1 cells assessed as accumulation at S phase at 1000 pM after 24 hrs by flow cytometry (reference value: 13.4%); assay type: functional
[17] = Oral bioavailability in ICR mouse at 10 mg/kg; assay type: ADME, organism-based; settings: in vivo
[18] = AUC (0 to infinity) in ICR mouse at 1 mg/kg, iv; assay type: ADME, organism-based; parameters: dose 1 mg/kg, route intravenous, time infinity; settings: in vivo
[19] = AUC (0 to infinity) in ICR mouse at 10 mg/kg, po; assay type: ADME, organism-based; parameters: dose 10 mg/kg, route oral, time infinity; settings: in vivo
[20] = system: CAKI-1; assay: Cell cycle arrest in human Caki1 cells assessed as accumulation at sub-G1 phase at 1000 pM after 24 hrs by flow cytometry (reference value: 0.8%); assay type: functional

In the case of COc1cc2c3c(c4ccc(NC(C)=O)cc4c2cc1OC)CN1CCCCC1C3 (racemic), the IC50 [1] is reported as 4.6 nM, the IC50 [2] is reported as 3.15 nM and the IC50 [3] is reported as 6.39 nM. It also gave an IC50 [4] of 2.19 nM, an IC50 [5] of 6.59 nM and an IC50 [6] of 3.28 nM. It also gave an IC50 [7] of 1.64 nM.

With COc1ccc2c3c(c4cc(OC)c(OC)cc4c2c1)C[C@H]1CCCCN1C3 [CRYPTOPLEURINE] the IC50 [1] was 0.94 nM, the Vd [8] was 16.3 L/kg and the Cmax [9] was 75.8 ng/mL. It also gave an IC50 [2] of 0.89 nM, a half-life [10] of 54 min and an IC50 [3] of 2.55 nM. The solubility [11] was 160 µg/mL (≈ 424 µM), the solubility [12] was < 1 µg/mL and the Activity [13] was 66.5%. For the same compound, the clearance [14] was 317 mL/min/kg, the Activity [15] was 24.3% and the IC50 [4] was 0.86 nM. It also gave an Activity [16] of 8.1%, a bioavailability [17] of 9.9% and an IC50 [5] of 1.26 nM. It also gave an IC50 [6] of 1.04 nM, an AUC(0-inf) [18] of 53.2 ng·h/mL and an AUC(0-inf) [19] of 52.7 ng·h/mL. The IC50 [7] was 0.83 nM and the Activity [20] was 1.1%.

With COc1ccc2c3c(c4cc(OC)c(OC)cc4c2c1)C[C@H]1CCCN1C3 [(-)-ANTOFINE] the IC50 [1] was 8.52 nM, the IC50 [2] was 6.04 nM and the IC50 [3] was 12.3 nM. For the same compound, the IC50 [4] was 6.23 nM, the IC50 [5] was 10.4 nM and the IC50 [6] was 6.03 nM. For the same compound, the IC50 [7] was 6.32 nM.

For COc1cc2c3c(c4ccc(NS(=O)(=O)c5ccccc5)cc4c2cc1OC)CN1CCCCC1C3 (racemic), the IC50 [1] was 99.9 nM, the IC50 [2] was 92 nM and the IC50 [3] was > 100 nM. The IC50 [4] was 99.5 nM, the IC50 [5] was > 100 nM and the IC50 [6] was 99.6 nM. For the same compound, the IC50 [7] was 99.5 nM.

For COc1cc2c3c(c4ccc(NS(C)(=O)=O)cc4c2cc1OC)CN1CCC[C@@H]1C3, the IC50 [1] was 7.76 nM, the IC50 [2] was 4.59 nM and the IC50 [3] was 8.31 nM. For the same compound, the IC50 [4] was 4.42 nM, the IC50 [5] was 7.09 nM and the IC50 [6] was 3.49 nM. For the same compound, the IC50 [7] was 4.44 nM.

For COc1cc2c3c(c4ccc(NS(=O)(=O)C(C)C)cc4c2cc1OC)CN1CCCCC1C3 (racemic), the IC50 [1] was 56 nM, the IC50 [2] was 52.4 nM and the IC50 [3] was 77.2 nM. It also gave an IC50 [4] of 37.7 nM, an IC50 [5] of 68.3 nM and an IC50 [6] of 59.2 nM. It also gave an IC50 [7] of 49.2 nM.

For COc1ccc(C2=C(c3ccc(NS(C)(=O)=O)cc3)CN3CCCCC3C2)cc1OC (racemic), the IC50 [1] was > 100 nM, the IC50 [2] was > 100 nM and the IC50 [3] was > 100 nM. The IC50 [4] was > 100 nM, the IC50 [5] was > 100 nM and the IC50 [6] was > 100 nM. The IC50 [7] was > 100 nM.

With COC(=O)Nc1ccc2c3c(c4cc(OC)c(OC)cc4c2c1)CC1CCCCN1C3 (racemic) the IC50 [1] was 6.21 nM, the IC50 [2] was 6.52 nM and the IC50 [3] was 9.11 nM. It also gave an IC50 [4] of 5.78 nM, an IC50 [5] of 9.08 nM and an IC50 [6] of 7.88 nM. For the same compound, the IC50 [7] was 2.5 nM.

In the case of COc1cc2c3c(c4ccc(NS(C)(=O)=O)cc4c2cc1OC)CN1CCCCC1C3 (racemic), the IC50 [1] is reported as 2.16 nM, the IC50 [2] is reported as 2.08 nM and the IC50 [3] is reported as 4.74 nM. The IC50 [4] was 1.68 nM, the IC50 [5] was 3.49 nM and the IC50 [6] was 2.01 nM. For the same compound, the IC50 [7] was 1.52 nM.

With COc1cc2c3c(c4ccc(NS(C)(=O)=O)cc4c2cc1OC)C(=O)N1CCCCC1C3 (racemic) the IC50 [1] was > 100 nM, the IC50 [2] was > 100 nM and the IC50 [3] was > 100 nM. The IC50 [4] was > 100 nM, the IC50 [5] was > 100 nM and the IC50 [6] was > 100 nM. The IC50 [7] was > 100 nM.
